Measurements taken from patent US20180186769A1, “6-AMINO-5-FLUORO-5-(FLUOROMETHYL)-2,3,4,5-TETRAHYDROPYRIDIN-2-YL-PHENYL-5-(METHOXY-D3)-PYRAZINE-2-CARBOXAMIDES AND FLUORINATED DERIVATIVES THEREOF AS BACE1 INHIBITORS” (H. Lundbeck A/S, priority 2016, published 2018).
pKi: −log10 of the molar value.

Assays:
[1] = Clearance in hepatocytes, cyno; type: in vitro ADME; details: cynomolgus monkey, read-out: CLint, Cyno (L/h/kg) ± SD (converted)
Excerpt: (§1) Deuterated compounds were compared to their non-deuterated parent counterparts to determine the impact of deuteration on clearance results

P-gp (MDR1) = assay: MDCK-MDR1 assay (permeability, efflux ratio); type: in vitro ADME; details: dog, Papp BA/Papp AB
Description: The permeability of the test compounds was assessed in MDCK-MDR1 cells that were cultured to confluency (4-6 days) in a 96 transwell plate. Test compounds were diluted with the transport buffer (HBSS+1% BSA) to a concentration of 0.5 μM and applied to the apical or basolateral side of the cell monolayer. Permeation of the test compounds from A to B direction or B to A direction was determined in triplicate over a 60-minute incubation time at 37° C. and 5% CO2 with a relative humidity of 95%. Test compounds were quantified by LC-MS/MS analysis based on the peaks area ratios of analyte/IS in both the receiver and donor wells of the transwell plate.
The apparent permeability coefficient Papp (cm/s) was calculated using the equation: […]
Where dCr/dt is the cumulative concentration of compound in the receiver chamber as a function of time (μM/s); Vr is the solution volume in the receiver chamber (0.05 mL on the apical side; 0.25 mL on the basolateral side); A is the surface area for the transport, i.e. 0.0804 cm^2 for the area of the monolayer; CO is the initial concentration in the donor chamber (μM).
Compounds are classified Pgp substrates when efflux ratio (Papp BA/Papp AB) is ≥2.

[2] = Clearance in hepatocytes, dog; type: in vitro ADME; details: read-out: CLint, Dog (L/h/kg) ± SD (converted)
Excerpt: as §1

BACE1 = BACE1 (Homo sapiens, UniProt P56817); assay: BACE1 binding assay (SPA-based); set-up: biotin (biotinylated form); made in house; host or cells: Freestyle HEK293 cells; details: pH 4.5, 10 nM radioligand
BACE1, sequence (P56817 46-501): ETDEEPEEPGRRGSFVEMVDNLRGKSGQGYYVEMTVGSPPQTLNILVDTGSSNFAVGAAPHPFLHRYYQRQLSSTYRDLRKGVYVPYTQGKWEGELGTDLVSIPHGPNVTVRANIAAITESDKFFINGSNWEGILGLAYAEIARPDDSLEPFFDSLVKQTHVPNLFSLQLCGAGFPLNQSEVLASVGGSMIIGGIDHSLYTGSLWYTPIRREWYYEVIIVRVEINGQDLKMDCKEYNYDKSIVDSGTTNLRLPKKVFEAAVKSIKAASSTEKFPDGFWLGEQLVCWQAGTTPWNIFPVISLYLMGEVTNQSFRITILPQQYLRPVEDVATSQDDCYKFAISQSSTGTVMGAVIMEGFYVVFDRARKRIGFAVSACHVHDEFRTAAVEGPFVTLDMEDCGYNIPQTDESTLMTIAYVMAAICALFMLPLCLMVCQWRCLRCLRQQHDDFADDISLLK
Description: The binding assay was performed as SPA-based assay using a biotinylated form of human BACE1 recombinantly expressed and subsequently purified from Freestyle HEK293 cells. The binding assay was run in a 50 mM sodium acetate buffer, pH 4.5 containing 50 mM NaCl and 0.03% Tween-20 in white clear bottom 384 plates (Corning #3653). […] The plates were incubated for one hour at room temperature and counted in a Wallac Trilux counter. Total and non-specific binding were determined using buffer and 1 μM (final concentration) of the high affinity BACE1 reference inhibitor (S)-6-[3-chloro-5-(5-prop-1-ynyl-pyridin-3-yl)-thiophen-2-yl]-2-imino-3,6-dimethyl-tetrahydro-pyrimidin-4-one, respectively. For each test compound, a IC50 value (the concentration mediating 50% inhibition of the specific binding of the radioligand) was determined from concentration-response curve and used to calculate the Ki from the equation Ki=IC50/(1+L/Kd), where L and Kd are the final concentration of the radioligand used in the assay and the dissociation constant of the radioligand, respectively. The Kd of the radioligand was determined from saturation binding experiments.

[3] = Clearance in microsomes, rat; type: in vitro ADME; details: 1 microM, read-out: CLint, Rat (L/h/kg) ± SD (converted)
Excerpt: as §1

- CLint scaled at 0.1 µM ([1]; 0.1 microM): 75 L/h/kg
- CLint scaled at 0.3 µM ([1]; 0.3 microM): 74 L/h/kg
- CLint scaled at 1 µM ([1]; 1 microM): 20 L/h/kg
- efflux ratio at 60 min, 0.5 μM (P-gp (MDR1)): 1.39
- CLint scaled at 0.1 µM ([2]; 0.1 microM): 34 L/h/kg
- CLint scaled at 0.3 µM ([2]; 0.3 microM): 25 L/h/kg
- CLint scaled at 1 µM ([2]; 1 microM): 11 L/h/kg
- pKi (BACE1): 7.77
- CLint scaled at 1 µM [3]: 0.9 L/h/kg
Compound: [2H]C([2H])([2H])Oc1cnc(C(=O)Nc2ccc(F)c([C@]3(C)CC[C@@](F)(CF)C(N)=N3)c2)cn1 [Example 1, N-(3-((2S,5S)-6-amino-5-fluoro-5-(fluoromethyl)-2-methyl-2,3,4,5-tetrahydropyridin-2-yl)-4-fluorophenyl)-5-(methoxy-d3)pyrazine-2-carboxamide]
